Measured values from ChEMBL document CHEMBL1201862, “PubChem BioAssay data set” (2004).
Activity calls are given as the source filed them.

How the values were obtained:
[1] = molecular target: Eukaryotic translation initiation factor 4H (Homo sapiens, UniProt Q15056); assay: eIF4H inhibition in translation initiation, SAR follow-up (AID 435011); type: functional
[2] = molecular target: Polyadenylate-binding protein 1 (Homo sapiens, UniProt P11940); assay: PABP inhibition in translation initiation, SAR follow-up (AID 435018); type: functional
[3] = molecular target: T1, Heat shock factor protein 1 (Mus musculus, UniProt P38532); assay: inhibition of MG132-induced HSE-luciferase signal, confirmation, cell-based, NIH3T3, luminescence, dose retest (AID 2382); type: functional;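 further: NIH3T3 fibroblasts with HSF1-driven luciferase reporter stressed by proteasome inhibitor MG132; luminescence from HSF1-driven luciferase expression after 8 hours of MG132 stress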
T1 sequence (P38532 whole entry): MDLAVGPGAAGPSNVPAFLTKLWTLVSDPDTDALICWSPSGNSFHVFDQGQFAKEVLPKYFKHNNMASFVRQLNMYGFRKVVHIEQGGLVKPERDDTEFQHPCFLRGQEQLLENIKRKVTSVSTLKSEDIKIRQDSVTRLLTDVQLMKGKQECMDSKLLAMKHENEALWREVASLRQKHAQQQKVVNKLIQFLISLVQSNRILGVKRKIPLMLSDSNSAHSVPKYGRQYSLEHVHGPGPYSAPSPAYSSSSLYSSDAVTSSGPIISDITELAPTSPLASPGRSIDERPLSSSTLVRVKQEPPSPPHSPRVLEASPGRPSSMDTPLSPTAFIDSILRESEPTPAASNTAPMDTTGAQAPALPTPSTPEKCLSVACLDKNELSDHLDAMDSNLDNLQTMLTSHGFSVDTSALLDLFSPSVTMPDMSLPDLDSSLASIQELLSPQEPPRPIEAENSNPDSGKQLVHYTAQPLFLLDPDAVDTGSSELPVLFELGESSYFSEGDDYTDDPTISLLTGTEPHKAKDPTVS

[4] = molecular target: Luciferin 4-monooxygenase (Photinus pyralis, UniProt P08659); assay: firefly luciferase enzyme inhibitors, dose response, biochemical, luminescence (AID 1891)
Tumor necrosis factor = Tumor necrosis factor (Homo sapiens, UniProt P01375); assay: TNFa-triggered NF-kB activation inhibitors, SAR follow-up, cell-based, revised (AID 2337); type: functional
[5] = molecular target: Nucleotide-binding oligomerization domain-containing protein 1 (Homo sapiens, UniProt Q9Y239); assay: NOD1 signaling inhibitors, SAR follow-up, revised (AID 2333); type: functional
[6] = Luminescence Cell-Based Dose Retest to Confirm Inhibitors of Cancer Stem Cells. [Related pubchem assays (depositor defined):AID2717, AID2721]; type: functional; details: Homo sapiens
[7] = molecular target: Neurotensin receptor type 1 (Homo sapiens, UniProt P30989); type: functional;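 further: Image-based confirmatory dose-response assay measuring agonist activity at NTR1; NTR1-expressing U2OS osteosarcoma cells imaged for beta-arrestin GFP spot formation; agonist potency where compounds increase beta-arrestin recruitment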
[8] = Fluorescence-based cell-based high throughput dose response assay for inhibitors of the interaction of nucleotide-binding oligomerization domain containing 2 (NOD2) and the receptor-interacting serine-threonine kinase 2 (RIPK2).; type: functional; details: Homo sapiens
HEK293 = assay: cells; details: Homo sapiens
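Wherever AC50 is given: cells exposed to compound for roughly 70 hours or longer before luminescence read.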

Chain of Tumor necrosis factor (P01375 whole entry, the tested form may be a part): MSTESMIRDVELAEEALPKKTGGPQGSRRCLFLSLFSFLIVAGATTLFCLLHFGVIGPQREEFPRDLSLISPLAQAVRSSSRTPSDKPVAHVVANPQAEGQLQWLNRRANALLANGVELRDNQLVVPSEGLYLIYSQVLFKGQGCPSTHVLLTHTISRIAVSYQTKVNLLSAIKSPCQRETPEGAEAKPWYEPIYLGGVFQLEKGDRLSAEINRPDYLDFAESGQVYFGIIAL
Chain of Nucleotide-binding oligomerization domain-containing protein 1 (Q9Y239 whole entry, the tested form may be a part): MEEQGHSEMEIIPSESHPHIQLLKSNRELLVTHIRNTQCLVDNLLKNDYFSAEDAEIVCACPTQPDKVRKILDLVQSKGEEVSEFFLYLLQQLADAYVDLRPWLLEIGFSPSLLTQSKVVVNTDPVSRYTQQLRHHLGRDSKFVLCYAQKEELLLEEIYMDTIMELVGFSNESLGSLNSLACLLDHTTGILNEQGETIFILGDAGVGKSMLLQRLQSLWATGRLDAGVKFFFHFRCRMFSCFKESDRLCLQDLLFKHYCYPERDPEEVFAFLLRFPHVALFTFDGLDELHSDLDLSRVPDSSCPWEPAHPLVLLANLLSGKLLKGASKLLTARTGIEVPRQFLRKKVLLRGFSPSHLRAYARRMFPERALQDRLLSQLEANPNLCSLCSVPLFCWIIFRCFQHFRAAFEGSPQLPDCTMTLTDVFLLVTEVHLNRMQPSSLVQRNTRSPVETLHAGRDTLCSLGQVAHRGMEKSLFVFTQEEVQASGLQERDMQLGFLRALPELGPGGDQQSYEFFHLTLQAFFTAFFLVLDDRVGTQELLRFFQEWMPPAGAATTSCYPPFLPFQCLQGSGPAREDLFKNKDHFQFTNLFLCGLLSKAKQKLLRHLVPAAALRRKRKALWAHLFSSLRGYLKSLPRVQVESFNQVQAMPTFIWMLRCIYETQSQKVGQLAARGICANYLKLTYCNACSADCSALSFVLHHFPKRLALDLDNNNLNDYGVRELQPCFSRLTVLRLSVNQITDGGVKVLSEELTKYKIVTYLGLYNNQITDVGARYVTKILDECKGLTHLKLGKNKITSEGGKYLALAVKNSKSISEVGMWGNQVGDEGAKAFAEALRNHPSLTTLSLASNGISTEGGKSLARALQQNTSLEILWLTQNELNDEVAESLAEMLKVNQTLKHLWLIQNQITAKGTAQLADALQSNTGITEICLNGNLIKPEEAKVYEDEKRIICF
Chain of Polyadenylate-binding protein 1 (P11940 whole entry): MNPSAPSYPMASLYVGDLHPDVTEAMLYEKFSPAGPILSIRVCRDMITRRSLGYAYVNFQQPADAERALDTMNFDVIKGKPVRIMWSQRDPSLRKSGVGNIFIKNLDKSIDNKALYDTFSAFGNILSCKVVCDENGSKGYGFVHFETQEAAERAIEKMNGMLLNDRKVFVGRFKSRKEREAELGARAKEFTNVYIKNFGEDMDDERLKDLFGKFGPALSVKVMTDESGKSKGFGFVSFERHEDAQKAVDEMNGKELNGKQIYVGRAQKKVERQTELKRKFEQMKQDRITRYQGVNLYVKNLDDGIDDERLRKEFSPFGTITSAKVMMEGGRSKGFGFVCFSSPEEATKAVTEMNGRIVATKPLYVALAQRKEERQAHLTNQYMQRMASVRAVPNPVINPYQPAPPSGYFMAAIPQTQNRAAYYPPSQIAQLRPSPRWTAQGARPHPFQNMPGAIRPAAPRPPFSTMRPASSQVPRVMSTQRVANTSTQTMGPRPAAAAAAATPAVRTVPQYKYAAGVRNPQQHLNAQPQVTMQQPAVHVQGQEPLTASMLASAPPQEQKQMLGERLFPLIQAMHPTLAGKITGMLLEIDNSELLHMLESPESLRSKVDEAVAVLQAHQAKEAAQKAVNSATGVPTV
Chain of Luciferin 4-monooxygenase (P08659 whole entry): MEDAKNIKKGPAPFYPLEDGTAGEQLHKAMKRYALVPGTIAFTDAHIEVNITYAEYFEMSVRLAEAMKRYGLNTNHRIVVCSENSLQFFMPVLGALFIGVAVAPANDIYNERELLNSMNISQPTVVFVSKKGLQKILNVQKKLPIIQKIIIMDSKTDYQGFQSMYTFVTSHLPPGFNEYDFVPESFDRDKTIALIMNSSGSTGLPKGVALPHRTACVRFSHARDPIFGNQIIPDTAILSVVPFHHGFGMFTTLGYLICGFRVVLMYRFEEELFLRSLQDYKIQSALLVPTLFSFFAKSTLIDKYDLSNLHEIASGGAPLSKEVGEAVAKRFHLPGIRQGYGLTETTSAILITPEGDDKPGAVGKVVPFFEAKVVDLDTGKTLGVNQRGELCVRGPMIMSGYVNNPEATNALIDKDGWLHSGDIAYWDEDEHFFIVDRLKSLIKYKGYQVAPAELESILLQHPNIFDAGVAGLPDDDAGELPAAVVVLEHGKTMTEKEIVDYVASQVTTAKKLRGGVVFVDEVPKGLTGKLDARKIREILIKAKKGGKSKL
Chain of Neurotensin receptor type 1 (P30989 whole entry, the tested form may be a part): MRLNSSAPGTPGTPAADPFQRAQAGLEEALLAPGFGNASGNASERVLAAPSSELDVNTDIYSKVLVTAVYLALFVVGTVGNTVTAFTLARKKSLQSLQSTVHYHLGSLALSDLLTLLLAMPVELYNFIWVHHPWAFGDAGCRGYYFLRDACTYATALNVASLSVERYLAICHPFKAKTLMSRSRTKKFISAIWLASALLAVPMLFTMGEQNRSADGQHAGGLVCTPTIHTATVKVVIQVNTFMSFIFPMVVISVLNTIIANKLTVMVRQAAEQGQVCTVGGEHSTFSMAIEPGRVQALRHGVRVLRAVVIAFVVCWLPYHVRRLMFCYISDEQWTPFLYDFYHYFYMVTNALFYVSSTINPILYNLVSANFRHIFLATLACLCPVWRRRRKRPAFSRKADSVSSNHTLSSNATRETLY

## CCOC(=O)Cc1c(Sc2ccccc2)c2ccccc2n1C
[1]
  IC50: > 100 µM (inactive)
[2]
  IC50: > 100 µM (inactive)

## CC(C)(C)c1ccc(C(=O)ON=C(N)c2ccccc2)cc1
[3]
  EC50: < 0.16 µM (active)
[4]
  EC50: 5.63 µM (active)
Tumor necrosis factor
  IC50: 1.51 µM (active)
[5]
  IC50: 2.84 µM (active)

## COc1ccc(C(=O)/C=C2/C(=O)Nc3ccccc32)c(OC)c1
[6]
  AC50: 5.87 µM (active)
[7]
  EC50: 24.2 µM (inactive)
[8]
  IC50: 19.5 µM (inactive)

## CC(=O)N1c2ccc(S(=O)(=O)N3CCN(c4ccccc4)CC3)cc2CC1C (configuration not stated)
Tumor necrosis factor
  IC50: 14.1 µM (active)
[5]
  IC50: 11.1 µM (active)
HEK293
  IC50: > 20 µM (inactive)
